Results on four compounds are retold here after ChEMBL document CHEMBL2424562, “A comparative study of antimicrobial properties of cyclo(l-Pro- l-Asp) with its 2-ketopiperazine analog” (2013).

Common to all, as to assay type: functional
Assay [1] concerns Klebsiella pneumoniae. In words: Antibacterial activity against Klebsiella pneumoniae MTCC 109 at MIC after overnight incubation by disc diffusion method.
The subject of assay [2] is Staphylococcus aureus. In words: Antibacterial activity against Staphylococcus aureus MTCC 902 at MIC after overnight incubation by disc diffusion method.
Assay [3] relates to Staphylococcus aureus. In words: Antibacterial activity against Staphylococcus aureus MTCC 902 after 24 hrs by two-fold dilution method. The settings on record: MTCC 902, 24 h.
Assay [4] deals with Staphylococcus epidermidis. The assay can be described thus: Antibacterial activity against Staphylococcus epidermidis MTCC 435 after 24 hrs by two-fold dilution method. The settings on record: MTCC 435, 24 h.
The test system of assay [5] is Bacillus subtilis. In words: Antibacterial activity against Bacillus subtilis MTCC 2756 at MIC after overnight incubation by disc diffusion method.
In assay [6] the test system is Pseudomonas aeruginosa. The assay can be described thus: Antibacterial activity against Pseudomonas aeruginosa MTCC 2642 at MIC after overnight incubation by disc diffusion method.
Assay [7] deals with Staphylococcus epidermidis. In words: Antibacterial activity against Staphylococcus epidermidis MTCC 435 at MIC after overnight incubation by disc diffusion method.
The subject of assay [8] is Escherichia coli. The assay can be described thus: Antibacterial activity against Escherichia coli MTCC 2622 at MIC after overnight incubation by disc diffusion method.
Assay [9] has as its system Bacillus subtilis. In words: Antibacterial activity against Bacillus subtilis MTCC 2756 after 24 hrs by two-fold dilution method. Particulars: MTCC 2756, 24 h.
In assay [10] the test system is Pseudomonas aeruginosa. The assay can be described thus: Antibacterial activity against Pseudomonas aeruginosa MTCC 2642 after 24 hrs by two-fold dilution method. The settings on record: MTCC 2642, 24 h.
For assay [11], the system named is Klebsiella pneumoniae. In words: Antibacterial activity against Klebsiella pneumoniae MTCC 109 after 24 hrs by two-fold dilution method. The settings on record: MTCC 109, 24 h.
The test system of assay [12] is Penicillium expansum. In words: Ratio of amphotericin B MIC to compound MIC for Penicillium expansum MTCC 2006.
In assay [13] the test system is Trichophyton rubrum. The assay can be described thus: Antifungal activity against Trichophyton rubrum MTCC 296 at 30 degC after 72 hrs by microbroth dilution technique. The settings on record: MTCC 296, 72 h.
Assay [14] deals with Candida tropicalis. The assay can be described thus: Antifungal activity against Candida tropicalis MTCC 184 at MIC after 48 hrs by disc diffusion method.
Assay [15] relates to Escherichia coli. In words: Antibacterial activity against Escherichia coli MTCC 2622 after 24 hrs by two-fold dilution method. The settings on record: MTCC 2622, 24 h.
In assay [16] the test system is Aspergillus flavus. In words: Antifungal activity against Aspergillus flavus MTCC 183 at MIC after 48 hrs by disc diffusion method.
Assay [17] relates to Penicillium expansum. The assay can be described thus: Antifungal activity against Penicillium expansum MTCC 2006 at MIC after 48 hrs by disc diffusion method.
Assay [18] deals with Aspergillus tubingensis. The assay can be described thus: Antifungal activity against Aspergillus tubingensis MTCC 2425 at MIC after 48 hrs by disc diffusion method.
The test system of assay [19] is Candida albicans. In words: Antifungal activity against Candida albicans MTCC 3017 at 37 degC after 48 hrs by microbroth dilution technique. Particulars: MTCC 3017, 48 h.
The subject of assay [20] is Aspergillus flavus. The assay can be described thus: Antifungal activity against Aspergillus flavus MTCC 183 at 30 degC after 72 hrs by microbroth dilution technique. The settings on record: MTCC 183, 72 h.
Assay [21] deals with Trichophyton rubrum. The assay can be described thus: Antifungal activity against Trichophyton rubrum MTCC 296 at MIC after 48 hrs by disc diffusion method.
The subject of assay [22] is Aspergillus niger. In words: Antifungal activity against Aspergillus niger MTCC 277 at 30 degC after 72 hrs by microbroth dilution technique. Particulars: MTCC 277, 72 h.
Assay [23] relates to Candida tropicalis. The assay can be described thus: Antifungal activity against Candida tropicalis MTCC 184 at 37 degC after 48 hrs by microbroth dilution technique. The settings on record: MTCC 184, 48 h.
Assay [24] concerns Aspergillus fumigatus. In words: Antifungal activity against Aspergillus fumigatus MTCC 3376 at MIC after 48 hrs by disc diffusion method.
In assay [25] the test system is Penicillium expansum. The assay can be described thus: Antifungal activity against Penicillium expansum MTCC 2006 at 30 degC after 72 hrs by microbroth dilution technique. Particulars: MTCC 2006, 72 h.
Assay [26] has as its system Aspergillus fumigatus. In words: Antifungal activity against Aspergillus fumigatus MTCC 3376 at 30 degC after 72 hrs by microbroth dilution technique. Particulars: MTCC 3376, 72 h.
The test system of assay [27] is Aspergillus niger. The assay can be described thus: Antifungal activity against Aspergillus niger MTCC 277 at MIC after 48 hrs by disc diffusion method.
For assay [28], the system named is Candida albicans. The assay can be described thus: Antifungal activity against Candida albicans MTCC 3017 at MIC after 48 hrs by disc diffusion method.
Assay [29] has as its system Aspergillus tubingensis. In words: Antifungal activity against Aspergillus tubingensis MTCC 2425 at 30 degC after 72 hrs by microbroth dilution technique. The settings on record: MTCC 2425, 72 h.

Converted amounts (≈) assume the structure as drawn.

Consider `O=C(O)c1cn(C2CC2)c2cc(N3CCNCC3)c(F)cc2c1=O` [CIPROFLOXACIN], for which the “diameter of the inhibition zone (DIZ)” value in assay [1] came to 33 mm; in assay [2], 31 mm; in [5] it was 30 mm; in [6], 33 mm; in [7] it was 31 mm; in assay [8] it was 32 mm. Further, the MIC in assay [3] is 1 µg/mL (≈ 3.02 µM); in [4] it was 0.25 µg/mL (≈ 0.754 µM); in [9], 2 µg/mL (≈ 6.04 µM); in [10], 1 µg/mL (≈ 3.02 µM); in assay [11] it was 0.5 µg/mL (≈ 1.51 µM).

For the compound `O=C(O)C[C@@H]1NC(=O)[C@@H]2CCCN2C1=O`, the Ratio in assay [12] stood at 8. In addition, the “diameter of the inhibition zone (DIZ)” value in assay [1] is listed as 31 mm; in [14] it was 33 mm; in assay [2], 21 mm; in assay [16], 28 mm; in assay [5] it was 24 mm; in assay [6], 26 mm. For the same compound, the “diameter of the inhibition zone (DIZ)” value was 24 mm in assay [7]; 26 mm in assay [8]; 29 mm in [17]; 25 mm in [18]; 38 mm in [21]; 23 mm in assay [24]. Further, the “diameter of the inhibition zone (DIZ)” value in assay [27] was found to be 22 mm; in assay [28], 26 mm. Besides, the minimal inhibitory concentration (MIC) worked out at 2 µg/mL (≈ 9.42 µM) in [13]; 64 µg/mL (≈ 302 µM) in [3]; 64 µg/mL (≈ 302 µM) in [4]; 16 µg/mL (≈ 75.4 µM) in assay [15]; 8 µg/mL (≈ 37.7 µM) in [19]; 16 µg/mL (≈ 75.4 µM) in assay [20]. For the same compound, the minimum inhibitory concentration (MIC) came to 32 µg/mL (≈ 151 µM) in assay [9]; 16 µg/mL (≈ 75.4 µM) in assay [22]; 4 µg/mL (≈ 18.8 µM) in assay [23]; 8 µg/mL (≈ 37.7 µM) in assay [25]; 32 µg/mL (≈ 151 µM) in assay [26]; 16 µg/mL (≈ 75.4 µM) in [10]. Also, the results for the MIC in [11] and in assay [29] were 8 µg/mL (≈ 37.7 µM) and 32 µg/mL (≈ 151 µM), respectively.

As to `C[C@@H]1[C@H](O)[C@@H](C)/C=C/C=C/C=C/C=C/C=C/C=C/C=C/[C@H](O[C@@H]2O[C@H](C)[C@@H](O)[C@H](N)[C@@H]2O)C[C@@H]2O[C@](O)(C[C@@H](O)C[C@@H](O)[C@H](O)CC[C@@H](O)C[C@@H](O)CC(=O)O[C@H]1C)C[C@H](O)[C@H]2C(=O)O` [AMPHOTERICIN B], the MIC in assay [13] came to 4 µg/mL (≈ 4.33 µM); in [19], 16 µg/mL (≈ 17.3 µM); in [20] it was 16 µg/mL (≈ 17.3 µM); in assay [22], 32 µg/mL (≈ 34.6 µM); in [23] it was 8 µg/mL (≈ 8.66 µM); in assay [25] it was 64 µg/mL (≈ 69.3 µM). Besides, the minimal inhibitory concentration (MIC) in assay [26] was 16 µg/mL (≈ 17.3 µM); in assay [29], 64 µg/mL (≈ 69.3 µM). Besides, the “diameter of the inhibition zone (DIZ)” value is on record as 24 mm in [14]; 22 mm in assay [16]; 20 mm in assay [17]; 30 mm in [18]; 29 mm in assay [21]; 25 mm in assay [24]. The “diameter of the inhibition zone (DIZ)” value in assay [27] was 26 mm; in [28], 31 mm.

For the compound `O=C(O)C[C@@H]1NC[C@@H]2CCCN2C1=O`, the “diameter of the inhibition zone (DIZ)” value in [1] was 17 mm; in [14], 14 mm; in assay [2] it was 16 mm; in assay [16] it was 24 mm; in assay [5], 15 mm; in assay [6], 14 mm. The “diameter of the inhibition zone (DIZ)” value in assay [7] was found to be 23 mm; in assay [8], 19 mm; in [17], 13 mm; in assay [18] it was 21 mm; in assay [21], 28 mm; in [24], 18 mm. The “diameter of the inhibition zone (DIZ)” value stood at 19 mm in assay [27] and 15 mm in assay [28]. For the same compound, the MIC in [13] came to 8 µg/mL (≈ 40.4 µM); in [3] it was 250 µg/mL (≈ 1260 µM); in [4], 64 µg/mL (≈ 323 µM); in [15], 64 µg/mL (≈ 323 µM); in [19] it was 250 µg/mL (≈ 1260 µM); in assay [20] it was 32 µg/mL (≈ 161 µM). The MIC stood at 125 µg/mL (≈ 631 µM) in assay [9]; 64 µg/mL (≈ 323 µM) in assay [22]; 125 µg/mL (≈ 631 µM) in assay [23]; 500 µg/mL (≈ 2520 µM) in assay [25]; 250 µg/mL (≈ 1260 µM) in [26]; 125 µg/mL (≈ 631 µM) in assay [10]. For the same compound, the values for the MIC in [11] and in assay [29] were 32 µg/mL (≈ 161 µM) and 125 µg/mL (≈ 631 µM), respectively.
